Measurements from patent publication US12517131B2, “Methods for labeling eukaryotic cells from a multicellular organism as well as for treating and/or diagnosing a cancer using modified monosaccharide compounds” (DIAMIDEX, priority 2019, dated 2026).
“And” between values parts separate entries of the source, which are not always exact repeats. Identical values can stand only once.

Tests used:
[1] = system: human urinary bladder carcinoma (T24); assay: Labeling of bladder cells with Ara-N3 probe, copper-free click, fluorescence microscopy; assay type: cell-based; conditions: 24 h, Ara-N3 10 mM
Method: (§1) The human uroepithelial cells (SV-HUC-1) and the human urinary bladder carcinoma (T24) were purchased from ATCC (Manassas, Van USA). These cell lines were grown in RPMI 1640 with Glutamine 1 medium (Lonza Biowhttaker) supplemented by 10% fetal bovine serum (FBS) (VWR international S.A.S). The culture medium was changed every two days. The passaging of cells was performed using Tryp-LE express 1× (Gibco). The cell viability was estimated using trypan blue exclusion tests.
(§2) SV-HUC-1 and T24 cells were seeded in 24-well plates, at density of 5*10^4 cells/well. Then, cells were incubated at 37° C., 5% in CO2 during 24 hours. Thereafter, the culture medium of each well was discarded, and attached cells were washed twice with Phosphate Buffer Salin (PBS) (Lonza Biowhittaker), before to be exposed to Ara-N3 probe (10 mM). Probe was added to culture medium with different FBS concentrations (3% and 10%). Then, cells were incubated at 37° C., 5% in CO2 for 24 hours again. The control cells were cultured using culture medium supplemented with 5% or 10% FBS, without addition of Ara-N3.
(§3) The fluorescence Assimilation of Ara-N3 probes was visualized by copper-free click chemistry using sulfo-DBCO-biotin (1 mM), followed by labeling with a mouse anti-biotin Alexa Fluor 488 antibody conjugate (0.62 mg/ml stock, Jackson ImmunoResearch, dilution 1/10). The click reaction was carry-out as following: At 24 h incubation times, the culture mediums were removed, and attached cells were washed twice with PBS. Cells were detached with Tryp-LE, washed twice with PBS, and centrifuged at 13000 g for 2 min. The cellular pellets were resuspended with 10 μL of sulfo-DBCO-biotin and incubated 30 min in the dark, and at 37 C°. Then, cells were washed twice with PBS, centrifuged, and cellular pellets were resuspended with 10 μL of a mouse anti-biotin antibody solution, before to be incubated at room temperature in dark. Thereafter, cells were washed twice with PBS and small cellular suspension spots (5 μL) were put in Polysine® adhesion slides (VWR international S.A.S), in the dark room, until dry (20 min). The spots were fixed with 4% paraformaldehyde during 20 min, in dark and room temperature. Slides were then washed twice with PBS, before recovering with square cover glasses (VWR international S.A.S) using glycerol Mounting Medium (Dako) and stored at 4° C. in dark room.
(§4) The fluorescence acquisition was recorded using Olympus Microscopy IX83 (Olympus Life Science) equipped with a 60×/1.3 […]/1.4 SRI (silicone refractive index) objective, and Hamamatsu oreca flash 4 LT camera with 109 nm/pixel calibrated pixel size. The excitation light was emitted by X-CITE 120LED using the AT180/30X excited filter and signal was monitored using AT535/40m emission filter. Green light exposition time was 600 ms and white light exposition time was determined by DIC methods at […]. The acquisition area size analyzed by the Celisens dimension V1.16 software was different depending on the cell number containing in the spot.
(§5) The images were processed using count and measure unit of the Cellsens dimension V1.16 software. The background noise was deleted as follows: ROI were first defined on the background of the image and the average pixel intensity was calculated. The value thus obtained was subtracted from all pixels of the image. The fluorescence intensity of each cell was determined from a threshold set at a value of 3030. All pixels that have intensity below 3030 were not counted.

[2] = system: human uroepithelial cells (SV-HUC-1); assay: as above; assay type: cell-based; conditions: 24 h, Ara-N3 10 mM
Method: as §1, §2, §3, §4, §5

[3] = system: OCI-Ly3 (vs Isolated primary B cells); assay: Labeling of cancer and non-cancer cells, fluorescence signal ratio; assay type: cell-based, human; conditions: OCI-Ly3 (24 h) vs Isolated primary B cells; Ara-N3 10 mM; FBS 10%
Method: as §3, §4, §5
(§6) The same experiments as in example 2 with other cancer and corresponding non cancer cells were performed. The culture media were adapted to the tested cells and supplemented by 10% fetal bovine serum (FBS). Ara-N3 probe (10 mM) was added to culture media with FBS concentration (10%). The incubation times corresponded to one doubling time or twice doubling time of the tested cells (see table below).
(§7) The fluorescence signal cancer/non cancer ratios were calculated based on fluorescence intensities obtained with Ara-N3 tested on cancer and corresponding non cancer cells.

[4] = system: THP1 (vs Monocytes/Macrophages); assay: as above; assay type: cell-based, human; conditions: THP1 (26 h) vs Monocytes/Macrophages (26 h); Ara-N3 10 mM; FBS 10%; one doubling time
Method: as §3, §4, §5, §6, §7

A375 (vs PIG) = assay: as above; assay type: cell-based, human; conditions: A375 (26 h) vs PIG (26 h); Ara-N3 10 mM; FBS 10%; one doubling time
Method: as §3, §4, §5, §6, §7

HL-60 (vs Lymphocytes T) = assay: as above; assay type: cell-based, human; conditions: HL-60 (28 h) vs Lymphocytes T (24 h); Ara-N3 10 mM; FBS 10%; one doubling time
Method: as §3, §4, §5, §6, §7

[5] = system: DOHH-2 (vs Isolated primary B cells); assay: as above; assay type: cell-based, human; conditions: DOHH-2 (40-48 h) vs Isolated primary B cells; Ara-N3 10 mM; FBS 10%
Method: as §3, §4, §5, §6, §7

[N-]=[N+]=NC[C@H]1OC(O)[C@@H](O)[C@@H]1O (stereo partly drawn) [Ara-N3, 5-azido-5-deoxy-D-arabinofuranose]
labelled cells %, T24 % ([1]; Intensity/μm^2 0-50000, FBS 3%, n = 226): 2.21% | labelled cells %, T24 % ([1]; Intensity/μm^2 0-50,000, FBS 10%, n = 282): 1.42% | labelled cells %, T24 % ([1]; Intensity/μm^2 50,000-100,000, FBS 3%, n = 226): 2.65% | labelled cells %, T24 % ([1]; Intensity/μm^2 50,000-100,000, FBS 10%, n = 282): 2.13% | labelled cells %, T24 % ([1]; Intensity/μm^2 100,000-150,000, FBS 3%, n = 226): 2.65% | labelled cells %, T24 % ([1]; Intensity/μm^2 100,000-150,000, FBS 10%, n = 282): 2.48% | labelled cells %, T24 % ([1]; Intensity/μm^2 150,000-200,000, FBS 3%, n = 226): 5.75% | labelled cells %, T24 % ([1]; Intensity/μm^2 150,000-200,000, FBS 10%, n = 282): 1.42% | labelled cells %, T24 % ([1]; Intensity/μm^2 200,000-250,000, FBS 3%, n = 226): 3.98% | labelled cells %, T24 % ([1]; Intensity/μm^2 200,000-250,000, FBS 10%, n = 282): 2.13% | labelled cells %, T24 % ([1]; Intensity/μm^2 250,000-300,000, FBS 3%, n = 226): 3.54% | labelled cells %, T24 % ([1]; Intensity/μm^2 250,000-300,000, FBS 10%, n = 282): 1.42% | labelled cells %, T24 % ([1]; Intensity/μm^2 300,000-350,000, FBS 3%, n = 226): 2.21% | labelled cells %, T24 % ([1]; Intensity/μm^2 300,000-350,000, FBS 10%, n = 282): 1.77% | labelled cells %, T24 % ([1]; Intensity/μm^2 350,000-400,000, FBS 3%, n = 226): 3.98% | labelled cells %, T24 % ([1]; Intensity/μm^2 350,000-400,000, FBS 10%, n = 282): 2.48% | labelled cells %, T24 % ([1]; Intensity/μm^2 400,000-450,000, FBS 3%, n = 226): 2.65% | labelled cells %, T24 % ([1]; Intensity/μm^2 400,000-450,000, FBS 10%, n = 282): 3.19% | labelled cells %, T24 % ([1]; Intensity/μm^2 450,000-500,000, FBS 3%, n = 226): 3.54% | labelled cells %, T24 % ([1]; Intensity/μm^2 450,000-500,000, FBS 10%, n = 282): 2.13% | labelled cells %, T24 % ([1]; Intensity/μm^2 >500,000, FBS 3%, n = 226): 66.81% | labelled cells %, T24 % ([1]; Intensity/μm^2 >500,000, FBS 10%, n = 282): 79.42% and 79.43% | labelled cells %, SV-HUC1 % ([2]; Intensity/μm^2 0-50000, FBS 3%, n = 239): 62.34% | labelled cells %, SV-HUC1 % ([2]; Intensity/μm^2 0-50,000, FBS 10%, n = 301): 73.45% | labelled cells %, SV-HUC1 % ([2]; Intensity/μm^2 50,000-100,000, FBS 3%, n = 239): 2.51% | labelled cells %, SV-HUC1 % ([2]; Intensity/μm^2 50,000-100,000, FBS 10%, n = 301): 4.32% | labelled cells %, SV-HUC1 % ([2]; Intensity/μm^2 100,000-150,000, FBS 3%, n = 239): 2.09% | labelled cells %, SV-HUC1 % ([2]; Intensity/μm^2 100,000-150,000, FBS 10%, n = 301): 1.66% | labelled cells %, SV-HUC1 % ([2]; Intensity/μm^2 150,000-200,000, FBS 3%, n = 239): 1.26% | labelled cells %, SV-HUC1 % ([2]; Intensity/μm^2 150,000-200,000, FBS 10%, n = 301): 1.33% | labelled cells %, SV-HUC1 % ([2]; Intensity/μm^2 200,000-250,000, FBS 3%, n = 239): 1.67% | labelled cells %, SV-HUC1 % ([2]; Intensity/μm^2 200,000-250,000, FBS 10%, n = 301): 0.66% | labelled cells %, SV-HUC1 % ([2]; Intensity/μm^2 250,000-300,000, FBS 3%, n = 239): 3.77% | labelled cells %, SV-HUC1 % ([2]; Intensity/μm^2 250,000-300,000, FBS 10%, n = 301): 0.66% | labelled cells %, SV-HUC1 % ([2]; Intensity/μm^2 300,000-350,000, FBS 3%, n = 239): 0.42% | labelled cells %, SV-HUC1 % ([2]; Intensity/μm^2 300,000-350,000, FBS 10%, n = 301): 0.33% | labelled cells %, SV-HUC1 % ([2]; Intensity/μm^2 350,000-400,000, FBS 3%, n = 239): 0.42% | labelled cells %, SV-HUC1 % ([2]; Intensity/μm^2 350,000-400,000, FBS 10%, n = 301): 0.66% | labelled cells %, SV-HUC1 % ([2]; Intensity/μm^2 400,000-450,000, FBS 3%, n = 239): 0.84% | labelled cells %, SV-HUC1 % ([2]; Intensity/μm^2 400,000-450,000, FBS 10%, n = 301): 0.66% | labelled cells %, SV-HUC1 % ([2]; Intensity/μm^2 450,000-500,000, FBS 3%, n = 239): 2.93% | labelled cells %, SV-HUC1 % ([2]; Intensity/μm^2 450,000-500,000, FBS 10%, n = 301): 1.33% | labelled cells %, SV-HUC1 % ([2]; Intensity/μm^2 >500,000, FBS 3%, n = 239): 21.76% | labelled cells %, SV-HUC1 % ([2]; Intensity/μm^2 >500,000, FBS 10%, n = 301): 14.62% | Cancer/Non Cancer Ratio (fluorescence signal) [3]: 6.2 | Cancer/Non Cancer Ratio (fluorescence signal) [4]: 19.5 | Cancer/Non Cancer Ratio (fluorescence signal) (A375 (vs PIG)): 3.5 | Cancer/Non Cancer Ratio (fluorescence signal) (HL-60 (vs Lymphocytes T)): 1.6 | Cancer/Non Cancer Ratio (fluorescence signal) [5]: 7.4
